Drawing on ChEMBL document CHEMBL5376009 (RSC Med Chem, 2024), this text covers EC50 and IC50 for 2 compounds.

pEC50, pIC50: −log10 of the molar value.

Common to all, as to assay type: functional, organism-based
The subject of assay [1] is Influenza A virus. The assay is described as follows: Antiviral activity against influenza A virus A/WSN/1933 (H1N1) infected in MDCK cells harbouring TamiFlu sensitive neuraminidase 274H mutant assessed as reduction in cytopathic effect by DAPI staining based analysis.
Assay [2] has as its system Influenza A virus. The assay is described as follows: Antiviral activity against influenza A virus A/WSN/1933 (H1N1) infected in MDCK cells harbouring TamiFlu sensitive neuraminidase 274Y mutant assessed as reduction in cytopathic effect by DAPI staining based analysis.
Assay [3] has as its system Influenza A virus. As to the kind of experiment: Antiviral activity against influenza A virus A/WSN/1933 (H1N1) harboring Tamiflu- sensitive neuraminidase (274H) infected in MDCK cells assessed as reduction in cytopathic effect by fluorescence based analysis.
Assay [4] relates to Influenza A virus. As to the kind of experiment: Antiviral activity against influenza A virus A/WSN/1933 (H1N1) harboring Tamiflu- sensitive neuraminidase (274Y) infected in MDCK cells assessed as reduction in cytopathic effect by fluorescence based analysis.
Assay [5] relates to Influenza A virus. The assay is described as follows: Antiviral activity against Oseltamivir-resistant Influenza A virus (H1N1) pdm09.

Consider `Cc1onc(-c2ccccc2Cl)c1C(=O)N1CCN(c2ccc([N+](=O)[O-])cc2Cl)CC1`, for which the pEC50 with Influenza A virus [1], in the assay on Influenza A virus [2] and in the assay with Influenza A virus [4] was 6.85 throughout. For the same compound, the pIC50 with Influenza A virus [3] is 7.15.
As for `COc1cccc(OC)c1C(=O)/C=C/c1nc(C)c(C)nc1C`, the pEC50 in the assay with Influenza A virus [5] was 5.98.
